Data as given in patent US20160000796A1, “PHARMACEUTICAL COMPOSITION FOR USE IN PREVENTION OR TREATMENT OF CANCER” (priority 2013, published 2016).

What was measured:
[1] = test system: HTLV-1-producing cell line, HUT102 (derived from ATL); assay: Cellular proliferation test (MTS assay), HUT102; type: cell-based
Method: (§1) HTLV-1-producing cell lines, MT2 (transformant with HTLV-1, JCRB cell No: JCRB1210) and HUT102 (ATL-derived cell line, ATCC No: TIB-162), were used.
(§2) Each nucleoside analogue reverse transcriptase inhibitor was added to the medium for cells at a final concentration of 100 μM. Cells were seeded on a 96-well plate at a concentration of 1×10^4 cells/100 μL/well and cultured for 4 hours (Day 0), 48 hours (Day 2) or 96 hours (Day 4). A medium added DMSO (solvent control) alone was used as a control. Cellular proliferation was examined by MTS assay. Specifically, after the cells were cultured for a predetermined time, a reagent for cellular proliferation test, Aqueous One Solution Cell Proliferation (trade name, manufactured by Promega), was added to the cells. Four hours later, absorbance at 490 nm was measured. The cellular proliferation was represented by a ratio relative to that of the control (solvent control) on Day 0 that was regarded as 1.
Abacavir was added to MT2 and HUT102 used in Example 1 at a concentration of 0 μM (DMSO was added instead of abacavir), 10 μM, 25 μM, 50 μM, 75 μM or 100 μM. The cells were seeded on a 96-well plate at a concentration of 1×10^4 cells/100 μL/well and cultured for 4 hours or 48 hours. […]

[2] = test system: HTLV-1; assay: Measurement of amount of virus (HTLV-1 P19 ELISA), MT2; type: cell-based, human T-cell leukemia virus type 1; conditions: 100 μM, Day 0, 2, 4, 7, compared among six NRTIs
Method: as §1
(§3) Each nucleoside analogue reverse transcriptase inhibitor was added to the medium for cells at a final concentration of 100 μM. Cells were seeded on a 96-well plate at a concentration of 1×10^4 cells/100 μL/well and cultured for 0 hour (Day 0), 48 hours (2 days), 96 hours (4 days) or 168 hours (7 days). At each time point, the medium was collected. The amount of virus contained in the medium collected at each time point (pg/mL) was measured by HTLV-1 P19 ELISA kit (manufactured by Zeptometrix).

[3] = test system: HTLV-1; assay: Measurement of amount of virus (HTLV-1 P19 ELISA), HUT102; type: cell-based, human T-cell leukemia virus type 1; conditions: 100 μM, Day 0, 2, 4, 7, compared among six NRTIs
Method: as §1, §3

[4] = test system: Jurkat (non-HTLV-1-infected cell line); assay: Cellular proliferation (MTS assay), Jurkat; type: cell-based, human; conditions: 100 μM
Method: as §2
This example used non-HTLV-1-infected cell lines: Jurkat (cell line derived from human T-cell leukemia, ATCC No: TIB-152), Kit225 (cell line derived from chronic T-cell leukemia, established in the laboratory of the inventors, Blood. 1987 October; 70 (4): 1069-72.), H9 (cell line derived from cutaneous T-cell lymphoma, ATCC No: HTB-176) and SUDHL6 (cell line derived from diffuse B cell lymphoma).
The six types of nucleoside analogue reverse transcriptase inhibitors as used in Example 1 were used and cellular proliferation was examined in the same manner as in Example 1.

[5] = test system: non-ATL cell line, Jurkat; assay: Chromosome double-strand break (Giemsa chromosome specimens), Jurkat; type: cell-based, human; conditions: 100 μM, 48 hours
Method: Abacavir was added to an ATL cell line, ED40515 (−), at a concentration of 0 μM (DMSO was added instead of abacavir), 10 μM, 25 μM, 50 μM, 75 μM or 100 μM. After the 48 hours culture, the cells were fixed by Carnoy and stained with Giemsa to prepare chromosome specimens in accordance with conventional methods. Similarly, zidovudine was added to ED40515 (−) at a concentration of 10 μM or 100 μM, and abacavir was added to a non-ATL cell line, Jurkat, at a concentration of 100 μM, and chromosome specimens were prepared. Chromosome images (100 or more images per group) were observed by an optical microscope. The cells were determined as being positive for double-strand break (DSB) when at least one chromosome break was found.

[6] = test system: Rad51, γH2AX and PARP; assay: Induction of DNA repair proteins (immunostaining); type: cell-based; conditions: ED40515 (−) versus Jurkat; 100 μM; 48 hours
Method: To an ATL cell line, ED40515 (−), or a non-ATL cell line, Jurkat, DMSO (solvent control) or abacavir was added at a concentration of 100 μM. The cells were cultured for 48 hours. The cells were fixed on slides, immuno-stained for Rad51, γH2AX and PARP, and observed by a fluorescent microscope. At least 70 cells per group were observed and the ratio of cells positive for each protein was calculated. Rad51, which is a homologue of a RecA protein of Escherichia coli, is involved in repair of double-strand DNA break. γH2AX, which is a phosphorylated histone protein, is involved in repair of double-strand DNA break. PARP, which is a poly(ADP-ribose) synthetase, is involved in repair of single-strand DNA break.

[7] = test system: TDP1-knocked-down cells (Jurkat); assay: Cellular proliferation (MTS) of TDP1-knocked-down cells; type: cell-based, human; conditions: TDP1 siRNA-introduced Jurkat versus control siRNA-introduced cells; 300 μM; 48 hours
Method: The cells were cultured for 48 hours. MTS assay was performed using a reagent for cellular proliferation test, Aqueous One Solution Cell Proliferation (trade name, manufactured by Promega), in the same manner as in Example 1.

[8] = test system: HOP—62 (lung cancer cell line lacking TDP1 expression); assay: Cellular proliferation (MTS) of lung cancer cell line HOP—62; type: cell-based; conditions: 100, 200 or 300 μM, 72 hours
Method: Lung cancer cell lines lacking TDP1 expression, HOP—62 and NCI_H522, were used. NCI_H1299, a lung cancer cell line expressing TDP1, was used as a control. HOP—62 and NCI_H522 were provided by Dr. Pommier (DNA Repair. 2014 January; 13: 1-9).
Abacavir was added to each of the cell lines at a concentration of 0 μM (DMSO was added instead of abacavir), 100 μM, 200 μM or 300 μM. The cells were seeded on a 96-well plate at a concentration of 3×10^3 cells/100 μL/well and cultured for 4 hours or 72 hours. After the culture of a predetermined time, MTS assay was performed using a reagent for cellular proliferation, test, Aqueous One Solution Cell Proliferation (trade name, manufactured by Promega), in the same manner as in Example 1. The cellular proliferation was represented by a ratio relative to that of the control (solvent control) on Day 0 that was regarded as 100%.

## Nc1nc(NC2CC2)c2ncn([C@H]3C=C[C@@H](CO)C3)c2n1 [abacavir, (−)-(1S,4R)-4-[2-amino-6-(cyclopropylamino)-9H-purin-9-yl]-2-cyclopentene-1-methanol]
[1]; 100 μM, Day 0, 2, 4, compared among six NRTIs
  cellular proliferation (ratio relative to solvent control on Day 0): most strongly suppressed
[1]; 10, 25, 50, 75, 100 μM, 48 hours
  cellular proliferation, dose dependence: suppressed cellular proliferation of both cell lines in a dose-dependent manner
[2]
  viral production (amount of virus in the medium): most strongly suppressed
[3]
  viral production (amount of virus in the medium): most strongly suppressed
[4]
  cellular proliferation: did not exhibit a suppressive effect
[5]
  ratio of double-strand break-positive cells: did not induce double-strand break
[6]
  ratio of PARP positive cells: induces Rad51, γH2AX, and PARP specifically in an ATL cell line
  ratio of Rad51 positive cells: induces Rad51, γH2AX, and PARP specifically in an ATL cell line
  ratio of γH2AX positive cells: induces Rad51, γH2AX, and PARP specifically in an ATL cell line
[7]
  cellular proliferation relative to abacavir-non-treated cells (100%): significantly lower
[8]
  cellular proliferation: suppressed cellular proliferation of HOP—62 and NCI_H522 lacking TDP1 expression in a concentration dependent manner
